Reference: patent US20260070887A1 (Shenzhen Zhongge Biological Technology Co., Ltd., priority 2022, published 2026)
Like-named read-outs stand apart in the source and are kept apart here.

How the values were obtained:
Assay type in all cases: cell-based
[1] = test system: HCC1954 cells; test: HCC1954 cell proliferation (Cell Titer-Glo, 6 days); settings: KIF18A-sensitive tumor cells
Description: (§1) The inhibitory effect on the KIF18A target by the compounds of the present disclosure was evaluated by testing the inhibitory effect on proliferation of HCC1954 and HCC1395 cells by the compounds of the present disclosure.
(§2) HCC1954 (ATCC, CRL-2388) and HCC1395 (ATCC, CRL-2324) cells were cultured separately in RPMI-1640 complete medium (Gibco, A1049101) containing 20% fetal bovine serum (Gibco, 10099141C), 100 U penicillin, and 100 μg/mL streptomycin (Gibco, 15140-122). The Promega kit Cell Titer-Glo (Promega: G7572) was used in this method for test. • 1. HCC1954 (KIF18A-sensitive tumor cells) and HCC1395 (KIF18A-insensitive tumor cells) were cultured separately in T75 cell culture flasks (Corning, 430641), and the medium was placed in a 37° C., 5% CO2 incubator. • 2. When the cell density reached 70% to 80% (about 2 to 3 times per week), cells are passaged with trypsin (0.25% EDTA). • 3. The cell culture flask was taken out and the cells were separated by adding 2 mL of trypsin (0.25% EDTA source) for 5 minutes. • 4. Digestion was stopped by adding 8 mL of RPM1-1640 medium and the cell suspension was transferred to a centrifuge tube and centrifuged at 1000 rpm for 5 minutes. • 5. The cells were resuspended with 5 mL of RPMI-1640 medium. Cell density was adjusted to 5×10^3/mL (HCC1954), and 2.5×10^4/mL (HCC1395), respectively. • 6. 40 μL of cell solution was added to the 384-well plate (Corning, 3765). • 7. The 384-well plate was centrifuged at 1000 rpm for 1 minute. • 8. The cells were cultured overnight in a 37° C., 5% CO2 incubator. • 9. The next day, 40 nL of compound solution was added to the 384-well plate using Echo650. The plate was then placed in a 37° C., 5% CO2 incubator for 6 days. • 10. After 6 days, 20 μL of Cell-Titer-Glo (Promega, G7572) reagent was added per well. • 11. Luminescence values were measured using the EnVision Xcite Multilabel Reader (PerkinElmer, 2105-0020).
(§3) The percentage of inhibition of cell proliferation by the test compound at each concentration was calculated by comparing with the values of the control group (0.1% DMSO). The IC50 values of the compounds were obtained by concentration-inhibition rate nonlinear regression analysis of the test compounds using GraphPad Prism 9.

[2] = test system: HCC1395 cells; test: HCC1395 cell proliferation (Cell Titer-Glo, 6 days); settings: KIF18A-insensitive tumor cells
Description: as §1, §2, §3

[3] = molecular target: hERG channel (Homo sapiens (Human), UniProt Q12809); test: hERG manual patch clamp test
Description: The cells used in this test were the HEK293 cell line transfected with hERG cDNA and stably expressing the hERG channel (#60187, supplied by BPS, passages P3-P23 for experimental studies). The cells were cultured in a medium containing the following components: MEM medium containing 10% (v/v) inactivated fetal calf serum, 1 mM sodium pyruvate, 500 μg/ml geneticin, 0.1 mM non-essential amino acids, and 100 U/m1 penicillin/streptomycin. HEK293 hERG cells were grown in a culture dish containing the above-mentioned medium, cultured in a 37° C., 5% CO2 incubator, and passaged approximately three times per week, with the cell fusion rate between 40% and 80%. 24 to 48 hours prior to electrophysiological experiments, HEK293 hERG cells were transferred to 0.05 mg/ml PDL-pretreated slides, seeded at a density of 1×10^4 cells per well in a 48-well plate, and grown in the same medium and under the same culture conditions. The density of HEK293 hERG cells on each circular slide needs to reach the requirement that most cells are independent and individual. The extracellular fluid components used in the hERG assay were as follows (mM): 145 NaCl, 4 KCl, 2 CaCl2, 1 MgCl2, 10 glucose, and 10 HEPES (pH adjusted to 7.40 with NaOH). The intracellular fluid components were as follows (mM): 130 KCl, 2 MgCl2, 5 EGTA, 10 HEPES and 5 Na2ATP (pH adjusted to 7.25 with KOH). […] Prior to the experiment, the compound was first serially diluted with DMSO to prepare stock solutions at 10, 3, 1, 0.3, and 0.1 mM, which were then further diluted with extracellular fluid to achieve the final test concentrations (in μM). The final concentration of DMSO in compound solutions at various concentrations was between 0.1% and 0.3%. All compound solutions are routinely sonicated for 5 to 10 min and shaken sufficiently to ensure complete dissolution of the compound, and all test solutions are mixed well by rotation for at least 10 min.
Electrophysiological tests were performed using a manual patch clamp system (HEKA EPC-10 signal amplifier and digital conversion system, HEKA Electronics, Germany) for the recording of whole cell currents. The specific test method was described as follows: Circular slides with […] hERG cells growing on the surface were placed in an electrophysiological recording chamber under an inverted microscope. The recording chamber was continuously perfused with extracellular fluid (at approximately 1 mL/min). The conventional whole-cell patch-clamp technique was employed for current recordings throughout the experiment. If not specified, the experiments were carried out at normal room temperature (about 25° C.). The cells were clamped at −80 mV. The cell clamp voltage was depolarized to +30 mV to activate the hERG potassium channel, and then clamped to −50 mV after 5 seconds to eliminate inactivation and produce a tail current. The peak tail current value was used as a value for the magnitude of the hERG current. The potassium current of hERG recorded in the above steps was stabilized by continuous extracellular fluid perfusion in the recording chamber, and the drug to be tested was continuously perfused until the inhibitory effect of the drug on hERG currents had stabilized. The coincidence of the most recent three consecutive current recording traces was typically taken as the criteria for determining whether steady-state conditions were achieved.
Dose-response curves of the test compounds were plotted with % hERG inhibition rate as the y-axis and test compound concentration as the x-axis, to calculate the IC50 values.

[4] = HEK293 cells stably expressing hERG, whole-cell patch clamp, read-out: hERG IC50

Sequence of hERG channel (Q12809 whole entry, the tested form may be a part): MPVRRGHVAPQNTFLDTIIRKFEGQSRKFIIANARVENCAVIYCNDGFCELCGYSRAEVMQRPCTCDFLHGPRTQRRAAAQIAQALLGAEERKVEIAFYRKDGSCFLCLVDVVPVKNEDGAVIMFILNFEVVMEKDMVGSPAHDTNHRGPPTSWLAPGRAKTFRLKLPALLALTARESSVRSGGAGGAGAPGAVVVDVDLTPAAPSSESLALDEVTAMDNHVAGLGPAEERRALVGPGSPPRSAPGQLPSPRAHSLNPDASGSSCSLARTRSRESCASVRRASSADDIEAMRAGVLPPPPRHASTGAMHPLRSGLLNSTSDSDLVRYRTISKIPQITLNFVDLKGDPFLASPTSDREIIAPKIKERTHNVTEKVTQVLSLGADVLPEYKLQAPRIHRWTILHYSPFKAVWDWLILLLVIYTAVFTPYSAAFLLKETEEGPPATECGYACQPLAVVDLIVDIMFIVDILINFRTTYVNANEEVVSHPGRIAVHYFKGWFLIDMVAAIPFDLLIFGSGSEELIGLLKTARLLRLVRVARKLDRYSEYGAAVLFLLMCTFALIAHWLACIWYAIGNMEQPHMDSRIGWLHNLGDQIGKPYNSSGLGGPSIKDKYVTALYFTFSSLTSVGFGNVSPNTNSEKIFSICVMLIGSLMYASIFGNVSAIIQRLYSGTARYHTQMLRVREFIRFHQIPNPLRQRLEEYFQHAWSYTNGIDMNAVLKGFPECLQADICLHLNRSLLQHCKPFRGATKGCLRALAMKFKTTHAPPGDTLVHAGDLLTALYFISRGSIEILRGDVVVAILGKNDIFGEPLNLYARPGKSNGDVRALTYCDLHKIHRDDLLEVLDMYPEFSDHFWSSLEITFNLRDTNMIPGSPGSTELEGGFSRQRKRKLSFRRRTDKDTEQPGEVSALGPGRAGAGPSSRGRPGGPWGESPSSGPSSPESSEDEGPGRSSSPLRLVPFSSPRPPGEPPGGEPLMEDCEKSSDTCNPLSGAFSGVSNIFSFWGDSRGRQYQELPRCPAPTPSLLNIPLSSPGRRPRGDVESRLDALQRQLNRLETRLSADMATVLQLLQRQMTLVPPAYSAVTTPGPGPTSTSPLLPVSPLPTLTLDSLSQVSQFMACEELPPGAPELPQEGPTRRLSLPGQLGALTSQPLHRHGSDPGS

SMILES | IC50 [1] [µM] | IC50 [2] [µM] | IC50 [3, 4] [µM] | other results
O=C(Nc1cccc2c1cc1n2CCOC1)c1ccc(NS(=O)(=O)CCO)cc1N1CCC(=C(F)F)CC1 [Example 319, 2-(4-difluoromethylene)piperidin-1-yl-N-(3,4-dihydro-1H-[1,4]oxazino[4,3-a]indol-9-yl)-4-((2-hydroxyethyl)sulfonamide) benzamide] | 0.01 to 0.5 | > 5 | > 10 | 
Nc1cc(NS(=O)(=O)CCO)cc(N2CCC3(CC2)CC3)c1C(=O)Nc1cccc(N2CCC(F)(F)CC2)c1 [Example 1, 2-amino-N-(3-(4,4-difluoropiperidin-1-yl)phenyl)-4-((2-hydroxyethyl)sulfonamide)-6-(6-azaspiro[2.5]octan-6-yl)benzamide] | ≤ 0.01 | > 5 |  | 
O=C(Nc1cccc2c1cc1n2CCOC1)c1ccc(NS(=O)(=O)CCO)cc1N1CCC2(CC1)CC2 [Example 235, N-(3,4-dihydro-1H-[1, 4]oxazino[4,3-a]indol-9-yl)-4-(2-hydroxyethylsulfonamido)-2-(6-azaspiro[2.5]octan-6-yl)benzamide] |  |  | 9.84 | IC50 ([1]; Homo sapiens, HCC1954, 144 h): ≤ 0.01 µM; IC50 ([2]; Homo sapiens, HCC1395, 144 h): > 5 µM
COc1ccc(NC(=O)c2ccc(NS(=O)(=O)CCO)cc2N2CCC3(CC2)CC3)c2cc3n(c12)CC(C)(C)OC3 [Example 455, 4-((2-hydroxyethyl)sulfonamido)-N-(6-methoxy-3,3-dimethyl-3,4-dihydro-1H-[1,4]oxazinyl[4,3-a]indol-9-yl)-2-(6-azaspiro[2.5]oct-6-yl)benzamide] |  |  |  | IC50 [3]: > 10 µM
COc1ccc(NC(=O)c2ccc(NS(=O)(=O)CCO)cc2N2CCC(=C(F)F)CC2)c2cc3n(c12)CC(C)(C)OC3 [Example 465, 2-(4-(difluoromethylene)piperidin-1-yl)-4-((2-hydroxyethyl)sulfonamido)-N-(6-methoxy-3,3-dimethyl-3,4-dihydro-1H-[1,4]oxazinyl[4,3-a]indol-9-yl)benzamide] |  |  | > 10 | 
CC1(C)Cn2c(cc3c(NC(=O)c4ccc(NS(=O)(=O)CCO)cc4N4CCC5(CC4)CC5)cccc32)CO1 [Example 371, N-(3,3-dimethyl-3,4-dihydro-1H-[1,4]oxazino[4,3-a]indol-9-yl)-4-(2-hydroxyethylsulfonamido)-2-(6-azaspiro[2.5]octan-6-yl)benzamide] |  |  | > 10 | 
CNc1cc(NS(=O)(=O)CCO)cc(N2CCC3(CC2)CC3)c1C(=O)Nc1cc(C)nc(N2CCC(F)(F)CC2)n1 [Example 4, N-(2-(4,4-difluoropiperidin-1-yl)-6-methylpyrimidin-4-yl)-4-(2-hydroxyethylsulfonamide)-2-methylamino-6-(6-azaspiro[2.5]octan-6-yl)benzamide] | ≤ 0.01 | > 5 |  | 
CC1(C)Cn2c(cc3c(NC(=O)c4ccc(NS(=O)(=O)CCO)cc4N4CCC5(CC4)CC5)ccc(OC(F)F)c32)CO1 [Example 523] |  |  | > 10 | 
CC1(C)Cn2c(cc3c(NC(=O)c4ccc(NS(=O)(=O)CCO)cc4N4CCC(=C(F)F)CC4)cccc32)CO1 [Example 370, 2-(4-(difluoromethylene)piperidin-1-yl)-N-(3,3-dimethyl-3,4-dihydro-1H-[1,4]oxazino[4,3-a]indol-9-yl)-4-((2-hydroxyethyl)sulfonamido)benzamide] |  |  | > 10 | 
